Data published in patent US20120040951A1, “HETEROARYL COMPOUNDS USEFUL AS RAF KINASE INHIBITORS” (priority 2008, published 2012).

What was measured:
V599E Raf = V599E Raf (Homo sapiens, UniProt P15056, V600E); assay: Biochemical FRET assay, mutant Raf (phosphorylation of MEK); settings: 0.125 nM V599E Raf, 100 nM biotin-MEK, 25 μM ATP, read-out: Raf (mut) inhibition
Procedure: (1) Biochemical FRET Assay […]
Inhibitors were diluted 4-fold in 100% DMSO and added to a final concentration of 10 μM to 40 μM to a solution containing 100 nM biotin-MEK, 0.125 nM V599E Raf in 50 mM HEPES, pH 7.4, 60 mM NaCl, 3 mM MgCl2, 2 mM DTT, 0.25 mM MnCl2, 0.01% BSA, and 0.01% Tween-20 and incubated for 20 minutes at room temperature. The kinase reaction was started by the addition of 25 μM ATP to a final volume of 45 μl and allowed to progress for 60 minutes. The reaction was stopped with 15 mM EDTA and 20 nM Streptavidin-APC, 2.5 nM Polyclonal anti p-MEK1/2 (Ser217/221), 2.5 nM Eu-labeled anti-rabbit IgG were added in Lance detection buffer and 5% Superblock in PBS for a final volume of 100 μl. The detection reaction was incubated for 90 minutes at room temperature and then read on an Analyst plate reader using standard TR-FRET (time resolved fluorescence resonance energy transfer) settings for Eu and APC.
Compounds having an activity designated as “A” provided an IC50≦100 nM; compounds having an activity designated as “B” provided an IC50 of 100-1000 nM; and compounds having an activity designated as “C” provided an IC50 of 1000-10,000 nM.

[1] = tested on: phospho-ERK in melanoma derived WM-266-4 cells; assay: Mechanistic cellular assay for Raf kinase activity (phospho-ERK, Bio-Plex); format: cell-based; settings: Homo sapiens, treated 1-2 hr at 37° C., serum free medium, read-out: pERK EC50
In short: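 WM-266-4 melanoma cells (wild-type/V600D BRaf) grown overnight in 10% FBS RPMI, then treated 1–2 h at 37 °C in serum-free RPMI with eight 3-fold dilutions of compound (from 5 mM DMSO stock, 1000× dilution). Lysate phospho-ERK1,2 quantified by Bio-Plex bead immunoassay.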

Sequence of V599E Raf (P15056 whole entry V600E): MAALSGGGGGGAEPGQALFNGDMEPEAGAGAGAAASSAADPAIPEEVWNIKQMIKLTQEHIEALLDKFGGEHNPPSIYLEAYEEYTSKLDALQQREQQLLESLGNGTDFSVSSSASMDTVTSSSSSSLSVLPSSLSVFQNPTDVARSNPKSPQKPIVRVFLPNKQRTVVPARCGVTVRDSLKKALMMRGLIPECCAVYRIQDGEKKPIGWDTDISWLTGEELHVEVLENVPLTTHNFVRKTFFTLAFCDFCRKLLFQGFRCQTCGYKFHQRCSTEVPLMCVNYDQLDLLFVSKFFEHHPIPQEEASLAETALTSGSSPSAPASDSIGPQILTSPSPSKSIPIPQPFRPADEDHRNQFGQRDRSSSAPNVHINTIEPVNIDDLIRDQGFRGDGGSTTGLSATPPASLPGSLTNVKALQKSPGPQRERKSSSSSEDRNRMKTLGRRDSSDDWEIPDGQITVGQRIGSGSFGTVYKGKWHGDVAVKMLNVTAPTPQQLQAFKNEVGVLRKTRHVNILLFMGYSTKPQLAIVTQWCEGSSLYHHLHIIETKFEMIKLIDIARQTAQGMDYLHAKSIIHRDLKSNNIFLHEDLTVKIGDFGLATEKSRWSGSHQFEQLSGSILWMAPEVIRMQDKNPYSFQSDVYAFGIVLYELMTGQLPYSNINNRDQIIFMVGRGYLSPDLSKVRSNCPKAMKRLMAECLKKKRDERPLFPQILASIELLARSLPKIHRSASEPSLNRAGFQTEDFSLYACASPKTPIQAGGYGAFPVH

| SMILES | IC50 (V599E Raf) | EC50 [1] |
| --- | --- | --- |
| C[C@@H](NC(=O)c1cnn(C)c1CNC1CC1)c1ncc(C(=O)Nc2cc(C(F)(F)F)c(Cl)cn2)s1 [Example 133] | 100 to 1000 nM | 100 to 1000 nM |
| C[C@@H](NC(=O)c1cnn(C)c1CN1CCCC1)c1ncc(C(=O)Nc2cc(C(F)(F)F)c(Cl)cn2)s1 [Example 132] | 100 to 1000 nM | 100 to 1000 nM |
| CC(NC(=O)c1ccc2ncsc2c1)c1cnc(Nc2ccc(C(F)(F)F)cc2)s1 (centres unmarked) [Example 74] | ≤ 100 nM | 1000 to 10000 nM |
| C[C@H](NC(=O)c1cc2c(cn1)ncn2C1CCC1)c1cnc(Nc2ccc(C(F)(F)F)cc2)cn1 [Example 187] | 100 to 1000 nM | 1000 to 10000 nM |
| O=C(Nc1ccc(Cl)c(C(F)(F)F)c1)c1ccc(CNC(=O)c2cnn3ccccc23)cc1 [Example 231] | 100 to 1000 nM | 1000 to 10000 nM |
| CC(NC(=O)c1cnn2cccnc12)c1cnc(Nc2ccc(C(F)(F)F)cc2)s1 (centres unmarked) [Example 225] | ≤ 100 nM | 1000 to 10000 nM |
| COCCn1c(C(=O)NC(C)c2cnc(Nc3ccc(C(F)(F)F)cc3)s2)cnc1C (centres unmarked) [Example 140] | ≤ 100 nM | 1000 to 10000 nM |
| Cc1ccc(NC(=O)c2cc([C@H](C)NC(=O)c3cnn4ccccc34)on2)cc1C(F)(F)F [Example 227] | ≤ 100 nM | 100 to 1000 nM |
| C[C@@H](NC(=O)c1cc2c(cn1)ncn2C1CN(CCO)C1)c1cnc(Nc2ccc(C(F)(F)F)cc2)s1 [Example 348] | ≤ 100 nM | ≤ 100 nM |
| C[C@@H](NC(=O)c1cnn(C)c1N)c1ncc(C(=O)Nc2cc(C(F)(F)F)c(Cl)cn2)s1 [Example 127] | ≤ 100 nM | ≤ 100 nM |
| CC(NC(=O)c1cc2nc[nH]c2cn1)c1ncc(C(=O)Nc2cc(C(F)(F)F)c(Cl)cn2)s1 (centres unmarked) [Example 77] | ≤ 100 nM | ≤ 100 nM |
| CC(NC(=O)c1cc2c(cn1)ncn2C)c1cnc(Nc2cc(C#N)cc(C(C)(C)C)c2)s1 (centres unmarked) [Example 350] | ≤ 100 nM | 1000 to 10000 nM |
| CC(NC(=O)c1cc2c(cn1)ncn2C1CNC1)c1cnc(Nc2ccc(C(F)(F)F)cc2)cn1 (centres unmarked) [Example 179] | ≤ 100 nM | 100 to 1000 nM |
| CC(NC(=O)c1cnn(C)c1)c1cnc(Nc2ccc(C(F)(F)F)cc2)s1 (centres unmarked) [Example 109] | ≤ 100 nM | 1000 to 10000 nM |
| CC(NC(=O)c1cc2c(cn1)nc(N)n2C)c1cnc(Nc2ccc(C(F)(F)F)cc2)cn1 (centres unmarked) [Example 201] | ≤ 100 nM | ≤ 100 nM |
| Cc1nn(C)cc1C(=O)N[C@H](C)c1ncc(C(=O)Nc2cc(C(F)(F)F)c(Cl)cn2)s1 [Example 123] | 100 to 1000 nM | 1000 to 10000 nM |
| C[C@@H](NC(=O)c1cnn2ccccc12)c1cc(C(=O)Nc2nc3cc(Cl)ccc3o2)on1 [Example 212] | ≤ 100 nM | 1000 to 10000 nM |
| CCc1[nH]ncc1C(=O)N[C@H](C)c1ncc(C(=O)Nc2cc(C(F)(F)F)c(Cl)cn2)s1 [Example 125] | 100 to 1000 nM | 100 to 1000 nM |
| CC(NC(=O)c1ccc2nc(N)sc2c1)c1cnc(Nc2ccc(C(F)(F)F)cc2)s1 (centres unmarked) [Example 75] | ≤ 100 nM | 100 to 1000 nM |
| Cc1ncsc1C(=O)N[C@H](C)c1ncc(C(=O)Nc2cc(C(F)(F)F)c(Cl)cn2)s1 [Example 99] | ≤ 100 nM | 1000 to 10000 nM |
| CC(NC(=O)c1cnc2nccn2c1)c1cnc(Nc2ccc(C(F)(F)F)cc2)s1 (centres unmarked) [Example 309] | 100 to 1000 nM | 1000 to 10000 nM |
| C[C@@H](NC(=O)c1cc2ncn(C)c2cn1)c1ncc(C(=O)Nc2cc(C(F)(F)F)c(Cl)cn2)s1 [Example 41] | ≤ 100 nM | 100 to 1000 nM |
| CC(NC(=O)c1cc(N)ccn1)c1ncc(C(=O)Nc2cc(C(F)(F)F)c(Cl)cn2)s1 (centres unmarked) [Example 87] | 100 to 1000 nM | 1000 to 10000 nM |

| SMILES | IC50 (V599E Raf) | EC50 [1] |
| --- | --- | --- |
| C[C@@H](NC(=O)c1cnc(N2CCN(C)CC2)s1)c1ncc(C(=O)Nc2cc(C(F)(F)F)c(Cl)cn2)s1 [Example 106] | ≤ 100 nM | 1000 to 10000 nM |
| CC(NC(=O)c1cc2c(cn1)ncn2CCO)c1cnc(Nc2ccc(C(F)(F)F)cc2)s1 (centres unmarked) [Example 25] | ≤ 100 nM | 100 to 1000 nM |
| C[C@@H](NC(=O)c1cccc(Br)n1)c1ncc(C(=O)Nc2cc(C(F)(F)F)c(Cl)cn2)s1 [Example 91] | 100 to 1000 nM | 1000 to 10000 nM |
| COc1ccc(C(F)(F)F)cc1NC(=O)c1cc([C@@H](C)NC(=O)c2cnn3ccccc23)no1 [Example 214] | 100 to 1000 nM | 100 to 1000 nM |
| CC(NC(=O)c1cc2c(cn1)nc(N)n2C)c1cnc(Nc2ccc(C(F)(F)F)cc2)s1 (centres unmarked) [Example 199] | ≤ 100 nM | ≤ 100 nM |
| C[C@@H](NC(=O)c1cc2c(cn1)ncn2C1CN(S(C)(=O)=O)C1)c1cnc(Nc2ccc(C(F)(F)F)cc2)s1 [Example 346] | ≤ 100 nM | ≤ 100 nM |
| C[C@H](NC(=O)c1cc2c(cn1)ncn2C)c1cnc(Nc2ccc(C(F)(F)F)nc2)s1 (single isomer, unassigned) [Example 267] | ≤ 100 nM | ≤ 100 nM |
| CC(NC(=O)c1ncc2ncn(C)c2n1)c1cnc(Nc2ccc(C(F)(F)F)cc2)s1 (centres unmarked) [Example 190] | ≤ 100 nM | 100 to 1000 nM |
| CC(NC(=O)c1cnn2ccccc12)c1ncc(C(=O)Nc2cc(C(F)(F)F)c(Cl)cn2)s1 (centres unmarked) [Example 223] | 100 to 1000 nM | ≤ 100 nM |
| C[C@@H](NC(=O)c1cc2c(cn1)ncn2C)c1cnc(Nc2ccc(C(F)(F)F)nc2)s1 (single isomer, unassigned) [Example 266] | 100 to 1000 nM | 1000 to 10000 nM |
| Cc1nc2cc(C(=O)N[C@H](C)c3ncc(C(=O)Nc4cc(C(F)(F)F)c(Cl)cn4)s3)ccc2n1C [Example 68] | ≤ 100 nM | 1000 to 10000 nM |
| CC(NC(=O)c1cnn2cc(-c3cccnc3)ccc12)c1ncc(C(=O)Nc2cc(C(F)(F)F)c(Cl)cn2)s1 (centres unmarked) [Example 320] | ≤ 100 nM | ≤ 100 nM |
| CC(NC(=O)c1cc2c(cn1)ncn2C)c1ncc(C(=O)Nc2cc(C(C)(C)C)on2)s1 (centres unmarked) [Example 43] | ≤ 100 nM | ≤ 100 nM |
| CCn1cnc2cnc(C(=O)NC(C)c3cnc(Nc4ccc(Cl)c(C(F)(F)F)c4)cn3)cc21 (centres unmarked) [Example 233] | ≤ 100 nM | 100 to 1000 nM |
| C[C@@H](NC(=O)c1cc2c(cn1)ncn2C1CN(C(=O)OC(C)(C)C)C1)c1cnc(Nc2ccc(C(F)(F)F)cc2)s1 [Example 24] | ≤ 100 nM | ≤ 100 nM |
| CCn1cc2cc(C(=O)NC(C)c3cnc(Nc4ccc(C(F)(F)F)cc4)s3)ncc2n1 (centres unmarked) [Example 207] | ≤ 100 nM | 100 to 1000 nM |
| CC(NC(=O)c1cc2c(cn1)ncn2C)c1cnc(Nc2cnc(C(F)(F)F)nc2)s1 (centres unmarked) [Example 261] | ≤ 100 nM | 100 to 1000 nM |
| CC(NC(=O)c1cnc2ncccn12)c1cnc(Nc2ccc(C(F)(F)F)cc2)s1 (centres unmarked) [Example 310] | ≤ 100 nM | 1000 to 10000 nM |
| CNC(=O)Cn1cnc2cnc(C(=O)NC(C)c3cnc(Nc4ccc(C(F)(F)F)cc4)s3)cc21 (centres unmarked) [Example 356] | ≤ 100 nM | 100 to 1000 nM |
| Cc1cn(-c2cccc(C(=O)N[C@H](C)c3ncc(C(=O)Nc4cc(C(F)(F)F)c(Cl)cn4)s3)n2)cn1 [Example 334] | 100 to 1000 nM | 1000 to 10000 nM |
| CC(=O)N1CC(n2cnc3cnc(C(=O)N[C@H](C)c4cnc(Nc5ccc(C(F)(F)F)cc5)s4)cc32)C1 [Example 347] | ≤ 100 nM | 100 to 1000 nM |
| CC(NC(=O)c1cn2ccnc2cn1)c1cnc(Nc2ccc(C(F)(F)F)cc2)s1 (centres unmarked) [Example 296] | ≤ 100 nM | 100 to 1000 nM |
| CC(NC(=O)c1cc2c(cn1)ncn2C)c1cnc(Nc2ccc(F)c(S(=O)(=O)C(F)(F)F)c2)cn1 (centres unmarked) [Example 268] | ≤ 100 nM | ≤ 100 nM |
